In paper PMC2775099 (Bioorganic & medicinal chemistry, 2009):

Target: rat nNOS (Rattus norvegicus, UniProt P29476)
Details: for potency with nNOS relative to 1: amine in the chain replaced with ether or amide

Row | potency with nNOS relative to 1 | loss of binding affinity relative to 1 (nNOS, amine replaced with amide) | SMILES
1 | significant loss in potency |  | Cc1cc(N)nc(CC2CNCC2NCCOCCc2cccc(F)c2)c1 (stereo not drawn) [compound 4, 6-((4-(2-(3-Fluorophenethoxy)ethylamino)pyrrolidin-3-yl)methyl)-4-methyl-pyridin-2-amine]
2 |  | 3-4 fold | Cc1cc(N)nc(CC2CNCC2NC(=O)CNCCc2cccc(F)c2)c1 (stereo not drawn) [compound 3, N-(4-((6-Amino-4-methylpyridin-2-yl)-methyl)-pyrrolidin-3-yl)-2-(3-fluorophenethylamino)-acetamide]
3 | significant loss in potency |  | Cc1cc(N)nc(CC2CNCC2OCCNC(=O)Cc2cccc(F)c2)c1 (stereo not drawn) [compound 6, N-(2-(4-((6-Amino-4-methylpyridin-2-yl)-methyl)pyrrolidin-3-yloxy)ethyl)-2-(3-fluorophenyl)acetamide]
